{"source": "patent US5770611A", "about": "“Indole derivatives as 5HT1 -like agonists” (Pfizer Inc., priority 1994, dated 1998)", "key": {"[1]": {"target": "T1, \"5-HT1 -like\" receptor (dog isolated saphenous vein strip) (Canis lupus familiaris, UniProt P79250)", "T1 construct": "on dog isolated saphenous vein strip; from tissue; host or cells: dog isolated saphenous vein strip", "T1 sequence (P79250 whole entry)": "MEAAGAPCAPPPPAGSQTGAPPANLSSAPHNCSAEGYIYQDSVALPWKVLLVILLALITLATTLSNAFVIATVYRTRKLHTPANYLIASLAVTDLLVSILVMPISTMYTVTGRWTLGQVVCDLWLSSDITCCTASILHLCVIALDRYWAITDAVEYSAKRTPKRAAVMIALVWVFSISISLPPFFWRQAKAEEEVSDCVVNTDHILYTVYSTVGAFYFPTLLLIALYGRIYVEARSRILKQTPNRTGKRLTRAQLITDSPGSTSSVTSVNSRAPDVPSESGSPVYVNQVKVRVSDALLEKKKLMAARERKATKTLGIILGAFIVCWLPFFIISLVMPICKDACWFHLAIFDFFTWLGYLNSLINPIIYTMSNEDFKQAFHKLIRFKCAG", "test": "contraction of isolated dog saphenous vein strip (\"5-HT1 -like\" receptor agonist activity)", "format": "cell-based", "conditions": "for EC50: concentration causing 50% of the maximum contraction effected by the compound; for RELATIVE POTENCY EC50 (compound)/EC50 (5-HT): ratio to 5-HT (higher = less potent)", "text": "The following Table illustrates the in vitro activities for a range of the compounds of the invention on dog isolated saphenous vein strip. EC50 represents the concentration of compound which causes 50% of the maximum contraction effected by it."}, "[2]": {"target": "T1, \"5-HT1 -like\" receptor (dog isolated saphenous vein strip)", "conditions": "antagonism of the agonist-induced contraction; cited from earlier work"}}, "data": [{"smiles": "CC(C)(O)CCc1ccc2[nH]cc(C[C@H]3CCCN3CC3CCCNC3=O)c2c1", "note": "(single isomer, unassigned) [Example 9A]", "values": [{"measurement": "EC50", "setting": "[1]", "value": 3000, "unit": "nM"}, {"measurement": "RELATIVE POTENCY EC50 (compound)/EC50 (5-HT)", "setting": "[1]", "value": 71}]}, {"smiles": "CC(C)(O)CCc1ccc2[nH]cc(C[C@H]3CCCN3CC3CCCNC3=O)c2c1", "note": "(single isomer, unassigned) [Example 9B]", "values": [{"measurement": "EC50", "setting": "[1]", "value": 1800, "unit": "nM"}, {"measurement": "RELATIVE POTENCY EC50 (compound)/EC50 (5-HT)", "setting": "[1]", "value": 78}]}, {"smiles": "CC(C)(O)CCc1ccc2[nH]cc(C[C@H]3CCCN3CC3CCN(Cc4ccccc4)C3)c2c1", "note": "(stereo partly drawn) [Example 1]", "values": [{"measurement": "EC50", "setting": "[1]", "value": 620, "unit": "nM"}, {"measurement": "RELATIVE POTENCY EC50 (compound)/EC50 (5-HT)", "setting": "[1]", "value": 11.0}]}, {"smiles": "CC(C)(O)CCc1ccc2[nH]cc(C[C@H]3CCCN3C[C@H]3CCCN3S(C)(=O)=O)c2c1", "note": "[Example 5, 5-(3-Hydroxy-3-methyl-1-butyl)-3-[N-(N-methane-sulphonyl-2(R)-pyrrolidinylmethyl)-2(R)-pyrrolidinylmethyl]-1H-indole]", "values": [{"measurement": "EC50", "setting": "[1]", "value": 180, "unit": "nM"}, {"measurement": "RELATIVE POTENCY EC50 (compound)/EC50 (5-HT)", "setting": "[1]", "value": 2.4}]}, {"smiles": "CSc1ccc2c(c1)C(N1CCN(C)CC1)Cc1ccccc1S2", "note": "(stereo not drawn) [methiothepin]", "values": [{"measurement": "block of contraction of dog saphenous vein strip", "setting": "[2]", "value": "This effect can be blocked by methiothepin"}]}]}
